# Patent publication US6528494B2 (priority 1996, dated 2003)
# Where a name gives a salt, the structure may show the parent alone.
# Assays:
# Format in all cases: cell-based
# [1] = target: T1, adenosine 1 receptor (Homo sapiens, UniProt P30542); experiment: Agonist activity against adenosine 1 receptor (CHO cells, forskolin-enhanced cAMP/SPAP reporter); details: CHO cells transfected with human receptor; forskolin-enhanced cAMP via SPAP; mean of all the versions tested
# T1 sequence (P30542 1-326): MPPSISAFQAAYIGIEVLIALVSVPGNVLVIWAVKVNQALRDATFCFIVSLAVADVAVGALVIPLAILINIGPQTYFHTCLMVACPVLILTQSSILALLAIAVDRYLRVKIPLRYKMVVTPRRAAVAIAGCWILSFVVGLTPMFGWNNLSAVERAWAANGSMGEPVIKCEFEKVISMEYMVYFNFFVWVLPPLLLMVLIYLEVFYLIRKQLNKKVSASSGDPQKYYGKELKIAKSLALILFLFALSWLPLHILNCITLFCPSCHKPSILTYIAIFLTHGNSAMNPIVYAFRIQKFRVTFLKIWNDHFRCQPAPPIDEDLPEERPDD
# Experimental: (§1) (1) Agonist activity against adenosine 2a, adenosine 1 and adenosine 3 receptor subtypes.
# (§2) The effect of test compounds was determined by their effects on basal levels of cAMP (A2a) or on forskolin-enhanced cAMP (A1 and A3) as reflected by changes in levels of SPAP.
# [2] = target: adenosine 2a receptor (Homo sapiens, UniProt P29274); experiment: Agonist activity against adenosine 2a receptor (CHO cells, cAMP/SPAP reporter); details: CHO cells transfected with human receptor; basal cAMP via SPAP; mean of all the versions tested
# Experimental: as §1, §2
# [3] = target: T2, adenosine 3 receptor (Homo sapiens, UniProt P0DMS8); experiment: Agonist activity against adenosine 3 receptor (CHO cells, forskolin-enhanced cAMP/SPAP reporter); details: CHO cells transfected with human receptor; forskolin-enhanced cAMP via SPAP; mean of all the versions tested
# T2 sequence (P0DMS8 1-318): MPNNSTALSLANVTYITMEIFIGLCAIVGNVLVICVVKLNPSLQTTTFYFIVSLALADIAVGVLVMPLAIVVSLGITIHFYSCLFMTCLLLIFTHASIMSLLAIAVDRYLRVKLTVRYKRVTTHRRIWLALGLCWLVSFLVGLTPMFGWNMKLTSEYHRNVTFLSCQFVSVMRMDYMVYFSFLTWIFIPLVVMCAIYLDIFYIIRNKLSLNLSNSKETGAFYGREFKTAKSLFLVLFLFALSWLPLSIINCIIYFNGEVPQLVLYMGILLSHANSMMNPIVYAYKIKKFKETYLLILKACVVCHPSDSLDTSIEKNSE
# Experimental: as §1, §2
# adenosine 2a receptor, sequence (P29274 whole entry): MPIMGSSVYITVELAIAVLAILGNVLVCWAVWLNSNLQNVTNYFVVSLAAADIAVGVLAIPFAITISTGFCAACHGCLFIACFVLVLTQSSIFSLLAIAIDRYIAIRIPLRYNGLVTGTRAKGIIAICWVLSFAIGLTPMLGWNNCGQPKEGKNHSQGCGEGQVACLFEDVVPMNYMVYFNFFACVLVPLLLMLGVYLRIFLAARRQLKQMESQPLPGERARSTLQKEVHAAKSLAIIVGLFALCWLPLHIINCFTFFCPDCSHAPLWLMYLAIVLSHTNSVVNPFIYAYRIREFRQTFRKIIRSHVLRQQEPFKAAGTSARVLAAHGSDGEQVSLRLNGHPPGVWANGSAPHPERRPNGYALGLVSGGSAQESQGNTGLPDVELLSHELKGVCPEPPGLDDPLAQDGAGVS
A1 EC50 as a ratio of that of NECA [1],A2a EC50 as a ratio of that of NECA [2],A3 EC50 as a ratio of that of NECA [3],SMILES
348.11,1.61,>320,"CCC(CC)Nc1nc(NC2CCC(N)CC2)nc2c1ncn2C1OC(c2nnn(C)n2)C(O)C1O.O=CO.O=CO [Example 87, (2R,3R,4S,5R)-2-[2-(trans-4-Amino-cyclohexylamino)-6-(1-ethyl-propylamino)-purin-9-yl]-5-(2-methyl-2H-tetrazol-5-yl)-tetrahydro-furan-3,4-diol Diformate]"
126.50,2.28,>160,Cn1nnc(C2OC(n3cnc4c(NCC(c5ccccc5)c5ccccc5)nc(NCCN5CCOCC5)nc43)C(O)C2O)n1.O=CO.O=CO (stereo not drawn) [Example 98]
111.30,2.25,>201,"Cn1nnc(C2OC(n3cnc4c(NCc5cccc(I)c5)nc(NCCN5CCCC5)nc43)C(O)C2O)n1.O=CO.O=CO [Example 108, (2R,3R,4S,5R)-2-[6-(3-Iodo-benzylamino)-2-(2-pyrrolidin-1-yl-ethylamino)-purin-9-yl]-5-(2-methyl-2H-tetrazol-5-yl)-tetrahydro-furan-3,4-diol bis(Formate)]"
48.50,3.91,>184,CCn1nnc(C2OC(n3cnc4c(NC(CO)Cc5ccccc5)nc(NCCN5CCCCC5)nc43)C(O)C2O)n1 (stereo not drawn) [Example 103]
3.13,5.00,>315,"Cn1nnc(C2OC(n3cnc4c(NC(CO)Cc5ccccc5)nc(NC(CO)Cc5ccccc5)nc43)C(O)C2O)n1 [Example 110, (2R,3R,4S,5R)-2-[2,6-Bis-(1S-Hydroxymethyl-2-phenyl-ethylamino)-purin-9-yl]-5-(2-methyl-2H-tetrazol-5-yl)-tetrahydro-furan-3,4-diol Formate]"
17.70,8.54,>446,"Cn1nnc(C2OC(n3cnc4c(NCc5cccc(I)c5)nc(NC(CO)Cc5ccccc5)nc43)C(O)C2O)n1 [Example 109, (2R,3R,4S,5R)-2-[2-(1S-Hydroxymethyl-2-phenyl-ethylamino)-6-(3-iodo-benzylamino)-purin-9-yl]-5-(2-methyl-2H-tetrazol-5-yl)-tetrahydro-furan-3,4-diol Formate]"
26.2,0.12,>161,"CCn1nnc(C2OC(n3cnc4c(NC5CCCC5)nc(NCCc5cn(C)cn5)nc43)C(O)C2O)n1 [Example 7, (2R,3R,4S,5R)-(2-{6-Cyclopentylamino-2-[2-(1-methyl-1H-imidazol-4-yl)-ethylamino]-purin-9-yl}-5-(2-ethyl-2H-tetrazol-5-yl)-tetrahydro-furan-3,4-diol Acetate]"
>7461.00,1.75,>270,"CCC(CC)Nc1nc(NCCN2CCOCC2)nc2c1ncn2C1OC(c2nnn(C)n2)C(O)C1O.O=CO.O=CO [Example 91, (2R,3R,4S,5R)-2-[6-(1-Ethyl-propylamino)-2-(2-morpholin-4-yl-ethylamino)-purin-9-yl]-5-(2-methyl-2H-tetrazol-5-yl)-tetrahydro-furan-3,4-diol Diformate]"
1.9,0.99,>315,"Cn1nnc(C2OC(n3cnc4c(NC5CCCC5)nc(NC(CO)Cc5ccccc5)nc43)C(O)C2O)n1 [Example 36, (2R,3R,4S,5R)-2-[6-Cyclopentylamino-2-(1S-hydroxymethyl-2-phenyl-ethylamino)-purin-9-yl]-5-(2-methyl-2H-tetrazol-5-yl)-tetrahydro-furan-3,4-diol Formate]"
4687.00,2.10,>153,"Cn1nnc(C2OC(n3cnc4c(NCC(c5ccccc5)c5ccccc5)nc(NC(CO)Cc5ccccc5)nc43)C(O)C2O)n1 [Example 95, (2R,3R,4S,5R)-2-[6-(2,2-Diphenyl-ethylamino)-2-(1S-hydroxymethyl-2-phenyl-ethylamino)-purin-9-yl]-5-(2-methyl-2H-tetrazol-5-yl)-tetrahydro-furan-3,4-diol Formate]"
490.80,2.50,>103,"CCn1nnc(C2OC(n3cnc4c(NCC(c5ccccc5)c5ccccc5)nc(NC5CCNC5)nc43)C(O)C2O)n1 [Example 84, (2R,3R,4S,5R)-2-[6-(2,2-Diphenyl-ethylamino)-2-(pyrrolidin-3S-ylamino)-purin-9-yl]-5-(2-ethyl-2H-tetrazol-5-yl)-tetrahydro-furan-3,4-diol bis(Trifluoroacetate)]"
21.30,2.54,>326,"CC(C)n1nnc([C@H]2O[C@@H](n3cnc4c(N[C@H](CO)Cc5ccccc5)nc(N[C@H]5CCNC5)nc43)[C@H](O)[C@@H]2O)n1.O=CO.O=CO [Example 64, (2R,3R,4S,5R)-2-[6-(1S-Hydroxymethyl-2-phenyl-ethylamino)-2-(pyrrolidin-3S-ylamino)-purin-9-yl]-5-(2-isopropyl-2H-tetrazol-5-yl)-tetrahydro-furan-3,4-diol bis(Formate)]"

SMILES,A1 EC50 as a ratio of that of NECA [1],A2a EC50 as a ratio of that of NECA [2],A3 EC50 as a ratio of that of NECA [3]
"CC(=O)O.CC(=O)O.CCn1nnc(C2OC(n3cnc4c(NCCN5CCOCC5)nc(NCCc5cn(C)cn5)nc43)C(O)C2O)n1 [Example 50, (2R,3S,4R,5R)-2-(2-Ethyl-2H-tetrazol-5-yl)-5-[2-[2-(1-methyl-1H-imidazol-4-yl)-ethylamino]-6-(2-morpholin-4-yl-ethylamino)-purin-9-yl]-tetrahydro-furan-3,4-diol Diacetate]",2443.00,1.48,>86
"CCn1nnc([C@H]2O[C@@H](n3cnc4c(NCC(c5ccccc5)c5ccccc5)nc(NCCN5CCCC5)nc43)[C@H](O)[C@@H]2O)n1.O=C(O)C(F)(F)F.O=C(O)C(F)(F)F.O=C(O)C(F)(F)F [Example 43, (2R,3R,4S,5R)-2-[6-(2,2-Diphenyl-ethylamino)-2-(2-pyrrolidin-1-yl-ethylamino)-purin-9-yl]-5-(2-ethyl-2H-tetrazol-5-yl)-tetrahydro-furan-3,4-diol tris(Trifluoroacetate)]",71.35,2.23,>546
"CC(=O)O.CCn1nnc([C@H]2O[C@@H](n3cnc4c(NCCC(C)(C)C)nc(NCCNc5ccccn5)nc43)[C@H](O)[C@@H]2O)n1 [Example 51, (2R,3R,4S,5R)-2-{6-(3,3-Dimethyl-butylamino)-2-[2-(pyridin-2-ylamino)-ethylamino]-purin-9-yl}-5-(2-ethyl-2H-tetrazol-5-yl)-tetrahydro-furan-3,4-diol Acetate]",144.00,1.46,>42
"Cn1cnc(CCNc2nc(NCCC(C)(C)C)c3ncn([C@@H]4O[C@H](c5nnn(C)n5)[C@@H](O)[C@H]4O)c3n2)c1.O=CO [Example 28, (2R,3R,4S,5R)-2-{6-(3,3-Dimethyl-butylamino)-2-[2-(1-methyl-1H-imidazol-4-yl)-ethylamino]-purin-9-yl}-5-(2-methyl-2H-tetrazol-5-yl)-tetrahydro-furan-3,4-diol Formate]",>=1250,0.36,>151
"CC(C)n1nnc([C@H]2O[C@@H](n3cnc4c(NCCc5ccccc5)nc(NCCc5cn(C)cn5)nc43)[C@H](O)[C@@H]2O)n1.O=CO [Example 57, (2R,3S,4R,5R)-2-(2-Isopropyl-2H-tetrazol-5-yl)-5-{2-[2-(1-methyl-1H-imidazol-4-yl)-ethylamino]-6-phenethylamino-purin-9-yl}-tetrahydro-furan-3,4-diol Formate]",376.10,2.42,>362
"Cn1cnc(CCNc2nc(NCCc3ccccc3)c3ncn([C@@H]4O[C@H](c5nnn(C)n5)[C@@H](O)[C@H]4O)c3n2)c1.O=CO [Example 34, (2R,3R,4S,5R)-2-{2-[2-(1-Methyl-1H-imidazol-4-yl)-ethylamino]-6-phenethylamino-purin-9-yl}-5-(2-methyl-2H-tetrazol-5-yl)-tetrahydro-furan-3,4-diol Formate]",1316,0.13,>173
